# Source: patent publication US8344100B2, “Poly-epitope peptide derived from thymidylate synthase having immunological and anti-tumour activity” (Universitá degli Studi di Siena, priority 2005, dated 2013)
# Where a SMILES comes first, the peptide text is derived from it.
# Columns and labels:
# [1] = test system: breast and colon carcinoma tumour cells; assay: Viability of target cells exposed to 5-FU (hemocytometric count); format: cell-based, human; details: sub-lethal doses for 48 hours
# Description: The viability of the target cells exposed to 5-FU was examined by means of a hemocytometric count after staining and was never less than 90%, thus excluding the possibility that the immunosensitisation was due to the large number of dead or already degenerating cells in the cytotoxicity assay.
# [2] = test system: MDA-MB-231, HT-29 and SW-1463 target cells; assay: Cytofluorimetric and immunoblotting analyses of target cells treated with 5-FU; format: cell-based, human; details: data not shown
# [3] = test system: murine TS in EL-4/HHD cells; assay: Cytofluorimetric test of TS expression in EL-4/HHD cells; format: cell-based, mouse; details: sub-lethal dose, constitutive expression 35%
# [4] = test system: EL-4/HHD autologous leukemic cells; assay: Tumour growth in HHD mice inoculated with EL-4/HHD cells; format: in vivo, transgenic (HHD) mice; details: with weekly intraperitoneal 5-FU
# Description: The results are given as the mean value ±SD of the maximum diameter.
# In this study, six groups of five mice received different immunological treatments with or without chemotherapeutic treatment with 5-FU. The mice in groups A and B were administered a control peptide derived from the mumps virus (100 μg per mouse); the mice in groups C and D were administered a cocktail of the TS-1, TS-2 and TS-3 peptides (100 μg per mouse); and the mice in groups E and F were administered the TS/PP peptide (100 μg per mouse).
# The mice received the first peptide administration subcutaneously at time 0, with recalls in the third and sixth week. Two weeks after the last administration, all animals were subcutaneously inoculated with 2×10^6 EL-4/HHD cells.
# In order to evaluate the possible interaction between TS and the 5-FU treatment for vaccination purposes, seven days after the tumour cells inoculation, the mice in groups B, D and F underwent a chemotherapeutic treatment based on weekly intraperitoneal administration of 5-FU ([…]).
# [5] = test system: HT-29 cells transfected with the HLA-A(*)02.01 gene; assay: 51Cr release cytotoxicity test of CTL lines against colon carcinoma cells HT-29; format: cell-based; details: HT-29 pretreated with 5-FU
# Description: (§1) The lymphocyte lines generated in vitro using TS/PP were capable of destroying the target cells derived from colon carcinoma (the HT-29 and SW-1463 cell lines).
# HLA-A (*)02.01 expression was induced by gene transfection on the membrane of HT29 target cells before every experiment. Specific lysis was calculated as follows: […]
# SW-1463 cells = assay: 51Cr release cytotoxicity test of CTL lines against colon carcinoma cells SW-1463; format: cell-based; details: SW-1463 pretreated with 5-FU
# Description: as §1
# [6] = Anatomo-pathological study of organs (autoimmunity, toxicity); format: in vivo, transgenic (HHD) mice; details: lung, liver, spleen, kidney, brain, skin and mucosa
# MDA-MB-231 cells = details: MDA-MB-231 pretreated with 5-FU
# Description: Cytotoxic assays. The release of radioactive chrome (^51Cr) was assayed as described in previous studies [18].
# Spontaneous release was determined in the plates to which 100 μl of medium was added without effector cells. The total radioactivity released was determined after treating the target with Triton x-100. HLA was blocked by using an anti-HLA-A2 antibody (A2.69, One Lambda, Inc., Chanoga Park, Calif., USA) or the anti-class I (pan A,B,C)-HLA antibody W6.32, which were incubated with the target cells for one hour before the cytotoxicity assay. The negative control was the UPC-10 monoclonal antibody.
# The cytotoxicity tests carried out using the technique of ^51Cr release were performed using target cells coming from cell lines derived from breast carcinoma (MDA-MB-231) and colon carcinoma (HT-29 and SW-1463), before and after treatment with sub-lethal doses of 5-FU.
# [7] = target: T1, HLA-A(*)02.01 molecule on cells (human); assay: T2 test (flow cytometry of HLA expression on T2 cells after exposure to the peptide)
# T1 construct: whole, on cells; Class I MHC molecule on cells; also called HLA-A2; HLA-A2.1
# [8] = target: T1, HLA-A(*)02.01 molecule on cells; assay: T2 test (flow cytometry, HLA-A*02:01 on T2 cells)
molecule,measurement,setting,value
"O=c1[nH]cc(F)c(=O)[nH]1 [5-FU, 5-fluorouracil]",Viability of the target cells,[1],≥ 90%
same,TS expression,"[2]; MDA-MB-231, HT-29, SW-1463",significant increase
same,Class I HLA expression,[2],did not induce any change
same,Expression of murine TS,[3],55-70%
same,Neoplastic growth,[4],did not change neoplastic growth in any way
CC[C@H](C)[C@H](NC(=O)[C@H](CCSC)NC(=O)[C@@H](N)Cc1ccc(O)cc1)C(=O)N[C@@H](C)C(=O)N[C@@H](Cc1c[nH]cn1)C(=O)N[C@H](C(=O)N[C@H](C(=O)NCC(=O)N[C@@H](CC(C)C)C(=O)N[C@@H](Cc1ccccc1)C(=O)N[C@@H](CC(C)C)C(=O)N[C@@H](CC(=O)O)C(=O)N[C@@H](CO)C(=O)N[C@@H](CC(C)C)C(=O)NCC(=O)N[C@@H](Cc1ccccc1)C(=O)N[C@@H](CO)C(=O)N[C@H](C(=O)N[C@H](C(=O)N[C@@H](CC(C)C)C(=O)NCC(=O)N[C@@H](CC(=O)O)C(=O)N[C@@H](C)C(=O)N[C@@H](Cc1c[nH]cn1)C(=O)N[C@H](C(=O)N[C@@H](Cc1ccc(O)cc1)C(=O)N[C@@H](CC(C)C)C(=O)O)[C@@H](C)CC)[C@@H](C)O)[C@@H](C)O)[C@@H](C)O)[C@@H](C)CC [TS/PP] (H-YMIAHITGLFLDSLGFSTTLGDAHIYL-OH; N-terminus and C-terminus assumed),Lysis after target cell pre-treatment with sub-lethal 5-FU doses,[5],significantly increased
same,Lysis after target cell pre-treatment with sub-lethal 5-FU doses,SW-1463 cells,significantly increased
same,"Degeneration, autoimmunity or toxicity",[6],do not indicate any autoimmunity or toxicity phenomena
same,Lytic activity after target cell pre-treatment with sub-lethal 5-FU doses,MDA-MB-231 cells,significantly increased
YMIAHITGLFLDSLGFSTTLGDAHIYL (also called 28-amer peptide) [TS/PP poly-epitope peptide (YMIAHITGLFLDSLGFSTTLGDAHIYL)],binding result,[7],no binding
YMIAHITGL (Synthetic 9-mer) [TS-2 peptide (YMIAHITGL)],binding result,[8],binds
FLDSLGFST (Synthetic 9-mer) [TS-3 peptide (FLDSLGFST)],binding result,[8],binds
TLGDAHIYL (Synthetic 9-mer) [TS-1 peptide (TLGDAHIYL)],binding result,[8],binds
